In the NIST ThermoML archive (doi:10.1016/j.jct.2004.07.024):

Assay: xn = mol fraction of the nth substance listed
Conditions: 101.33 kPa, Liquid

C[S+](C)[O-] [dimethyl sulfoxide] + Cc1ccccc1
Conditions	mass density [kg/m3]
293.15 K, x2 = 0.0689	1077.87
293.15 K, x2 = 0.1505	1053.27
293.15 K, x2 = 0.2269	1031.56
293.15 K, x2 = 0.3036	1010.99
293.15 K, x2 = 0.3758	992.64
293.15 K, x2 = 0.4568	973.24
293.15 K, x2 = 0.5177	959.33
293.15 K, x2 = 0.5769	946.41
293.15 K, x2 = 0.6342	934.37
293.15 K, x2 = 0.6885	923.31
293.15 K, x2 = 0.7512	911.04
293.15 K, x2 = 0.8181	898.38
293.15 K, x2 = 0.8856	886.05
293.15 K, x2 = 0.9553	873.71
303.15 K, x2 = 0.0652	1069.85
303.15 K, x2 = 0.1295	1050.38
303.15 K, x2 = 0.1806	1035.51
303.15 K, x2 = 0.2563	1014.57
303.15 K, x2 = 0.3098	1000.5
303.15 K, x2 = 0.3845	981.74
303.15 K, x2 = 0.4456	967.18
303.15 K, x2 = 0.5169	950.98
303.15 K, x2 = 0.5813	937.04
303.15 K, x2 = 0.6645	919.88
303.15 K, x2 = 0.7499	903.18
303.15 K, x2 = 0.8114	891.64
303.15 K, x2 = 0.8802	879.15
303.15 K, x2 = 0.9532	866.39
313.15 K, x2 = 0.0661	1059.41
313.15 K, x2 = 0.1202	1043.16
313.15 K, x2 = 0.1891	1023.36
313.15 K, x2 = 0.2403	1009.32
313.15 K, x2 = 0.2945	995.06
313.15 K, x2 = 0.3615	978.24
313.15 K, x2 = 0.4369	960.28
313.15 K, x2 = 0.5156	942.59
313.15 K, x2 = 0.5813	928.56
313.15 K, x2 = 0.6558	913.41
313.15 K, x2 = 0.7267	899.63
313.15 K, x2 = 0.7956	886.78
313.15 K, x2 = 0.8821	871.32
313.15 K, x2 = 0.9448	860.52
323.15 K, x2 = 0.0884	1042.41
323.15 K, x2 = 0.1236	1032.08
323.15 K, x2 = 0.1869	1014.1
323.15 K, x2 = 0.2536	996.08
323.15 K, x2 = 0.3285	976.94
323.15 K, x2 = 0.3996	959.75
323.15 K, x2 = 0.4501	948.11
323.15 K, x2 = 0.4969	937.7
323.15 K, x2 = 0.5563	925
323.15 K, x2 = 0.616	912.74
323.15 K, x2 = 0.6725	901.61
323.15 K, x2 = 0.7562	885.79
323.15 K, x2 = 0.8532	868.42
323.15 K, x2 = 0.9458	852.63
333.15 K, x2 = 0.0598	1040.93
333.15 K, x2 = 0.1436	1016.4
333.15 K, x2 = 0.2258	993.84
333.15 K, x2 = 0.2931	976.44
333.15 K, x2 = 0.3652	958.78
333.15 K, x2 = 0.4112	948.06
333.15 K, x2 = 0.4859	931.36
333.15 K, x2 = 0.5301	921.94
333.15 K, x2 = 0.5965	908.31
333.15 K, x2 = 0.6789	892.24
333.15 K, x2 = 0.7215	884.23
333.15 K, x2 = 0.7899	871.86
333.15 K, x2 = 0.8512	861.15
333.15 K, x2 = 0.9503	844.53
343.15 K, x2 = 0.0599	1030.68
343.15 K, x2 = 0.1102	1015.93
343.15 K, x2 = 0.1798	996.46
343.15 K, x2 = 0.2549	976.61
343.15 K, x2 = 0.3169	961.13
343.15 K, x2 = 0.3858	944.75
343.15 K, x2 = 0.4405	932.38
343.15 K, x2 = 0.5258	914.08
343.15 K, x2 = 0.5936	900.34
343.15 K, x2 = 0.6678	886.01
343.15 K, x2 = 0.7166	876.96
343.15 K, x2 = 0.7925	863.42
343.15 K, x2 = 0.8792	848.65
343.15 K, x2 = 0.9552	836.24
353.15 K, x2 = 0.0801	1014.55
353.15 K, x2 = 0.1526	994.06
353.15 K, x2 = 0.2215	975.63
353.15 K, x2 = 0.2869	959.04
353.15 K, x2 = 0.3568	942.26
353.15 K, x2 = 0.4205	927.79
353.15 K, x2 = 0.4956	911.6
353.15 K, x2 = 0.5723	895.96
353.15 K, x2 = 0.6321	884.4
353.15 K, x2 = 0.7058	870.71
353.15 K, x2 = 0.768	859.69
353.15 K, x2 = 0.8363	848.04
353.15 K, x2 = 0.8913	838.96
353.15 K, x2 = 0.9524	829.17
